Measurements reported in patent US20150087722A1, “TREATMENT FOR BREAST TUMOR CELL METASTASIS” (China Medical University, priority 2012, published 2015).

What was measured:
[1] = test system: ERK1/2, p38 and JNK1/2 in breast tumor cells; assay: western blotting of MAPK proteins and phosphorylation; format: cell-based, human; settings: 2 μM, 0-120 min
Method: The steps of western blotting include: washing cells with PBS twice at 4° C.; adding a lysis buffer and rubbing the cells by a rubbr policeman so as to lyse cells; putting the lysed cell solution into a 1.5 ml microcentrifuge tube and shaking for 1 min; centrifuging at 12000 rpm for 10 min and taking the supernatant; measuring concentration of the protein through a Bio-Rad protein assay kit; and storing the remained extracted protein solution at −70° C.; taking 100 μg protein solution and adding a SDS/protein loading buffer having the same volume, where the SDS/protein loading buffer has a concentration two times larger than the protein solution; boiling the mixture of the protein solution and the SDS/protein loading buffer at 100° C. for 10 min; cooling and loading the protein samples in each hole of gel; adjusting the voltage to 100 V and running the protein samples on the gel until the tracking dye in the sample buffer reaches the bottom of the gel; and subsequently transferring the protein from the gel using electrophoresis. […] Then luminescence image equipment was used, where the PVDF was placed onto a black metal plate by a plastic pincer and the face including protein was upwards, a 1:1 mixed Chemiluminesent Substrate was added into the membrane and the exposure time depends on the fluorescence intensity of antibodies. […]

[2] = test system: EMT-related proteins in human normal breast cells MCF-10A stimulated by TNF-α/TGF-β; assay: western blotting of EMT-related proteins; format: cell-based
Method: FIG. 2A illustrates the expression results of EMT-related proteins in breast tumor cells MDA-MB-231 after the breast tumor cells MDA-MB-231 have been respectively cultured under compound II having concentrations of 0, 0.5, 1 and 2 μM for 24 h; and FIG. 2B illustrates the expression results of EMT-related proteins in breast tumor cells MCF-7 after the breast tumor cells MCF-7 have been respectively cultured under the compound II having concentrations of 0, 10, 15 and 20 μM for 24 h. FIG. 3A illustrates the western blotting results of EMT-related proteins in the breast tumor cells MDA-MB-468, where the breast tumor cells MDA-MB-468 are treated with the compound I having concentrations of 0, 0.5, 1 and 2 μM for 24 h, and FIG. 3B illustrates the western blotting results of EMT-related proteins in the breast tumor cells MDA-MB-435, where the breast tumor cells MDA-MB-435 are treated with the compound I having concentrations of 0, 2.5, 5 and 7.5 μM for 24 h. FIG. 4 illustrates the western blotting results of EMT-related proteins in the human normal breast cells MCF-10A stimulated by TNF-α/TGF-β, where the human normal breast cells MCF-10A are treated with the compound I having concentrations of 2 μM for 24 h. The human normal breast cells stimulated by TNF-α/TGF-β can cause TNF-α/TGF-β-induced EMT in the human normal breast cells MCF-10A. The steps of western blotting include: washing cells with PBS twice at 4° C.; adding a lysis buffer and rubbing the cells by a rubbr policeman so as to lyse cells; putting the lysed cell solution into a 1.5 ml microcentrifuge tube and shaking for 1 min; centrifuging at 12000 rpm for 10 min and taking the supernatant; measuring concentration of the protein through a Bio-Rad protein assay kit; and storing the remained extracted protein solution at −70° C.; taking 100 μg protein solution and adding a SDS/protein loading buffer having the same volume, where the SDS/protein loading buffer has a concentration two times larger than the protein solution; boiling the mixture of the protein solution and the SDS/protein loading buffer at 100° C. for 10 min; cooling and loading the protein samples in each hole of gel; adjusting the voltage to 100 V and running the protein samples on the gel until the tracking dye in the sample buffer reaches the bottom of the gel; and subsequently transferring the protein from the gel using electrophoresis. A PVDF membrane was soaked in methanol until the paper was totally wet. […] Then luminescence image equipment was used, where the PVDF was placed onto a black metal plate by a plastic pincer and the face including protein was upwards, a 1:1 mixed Chemiluminesent Substrate was added into the membrane and the exposure time depends on the fluorescence intensity of antibodies. […]

[3] = 2 μM with TNF-α/TGF-β 10 ng/ml, 24 h

Structure (SMILES) | phosphorylation of ERK1/2, p38 and JNK1/2 [1] | protein expression of ERK1/2, p38 and JNK1/2 [1] | protein expression amount of E-cadherin and occludin [2, 3] | protein expression amount of vimentin and β-catenin [2, 3] | protein expression amount of E-cadherin and occludin ([2]; compound alone 2 μM) | protein expression amount of vimentin and β-catenin ([2]; compound alone 2 μM)
COC1=C(OC)C(=O)C(C)=C(C)C1=O [compound II] | probably inhibited | not affected |  |  |  | 
COC1=C(OC)C(=O)C(C)=CC1=O [compound I] |  |  | also increased | recovered the increase caused by TNF-α/TGF-β stimulating | increased | decreased
